Measurements taken from PMC6211316, “Synthesis and biological evaluation of 3-arylcoumarin derivatives as potential anti-diabetic agents” (Journal of Enzyme Inhibition and Medicinal Chemistry, 2018).

What was measured:
AGEs formation = assay: In vitro inhibitory activity of AGEs formation (bovine serum albumin/glucose); type: biochemical; conditions: mean ± SD (n = 3)
How it was run: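 Bovine serum albumin (10 mg/mL) with 0.2 M glucose in 50 mM PBS, pH 7.4, plus 0.02% sodium azide, was mixed with compound solutions (0.5–1000 μg/mL in DMSO) and held 14 d at 37 °C. AGE fluorescence was read at ex 350/em 420 nm in triplicate. Inhibition was corrected with glucose-free blanks, and IC50 calculated.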

[1] = DPPH free radical scavenging; conditions: mean ± SD (n = 3)
How it was run: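 Sample solutions at various concentrations mixed 1:1 with DPPH (0.04 mg/mL) and reacted 30 min at room temperature; absorbance read at 517 nm against ethanol blank, corrected for sample absorbance. Scavenging % calculated versus DPPH alone, triplicate measurements, IC50 derived.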

[2] = Oral toxicity to mice (Lorke's method); conditions: both sexes, mouse, in vivo, Kunming mice, observed 14 days
Method: With reference to Lorke’s method, kunming mice were used as targets to estimate the oral toxicity of each compound to mice. We select compounds 11, 17, 25, 28, and 35 at concentrations of 10, 100, and 1000 mg/kg to test their oral toxicity in the first phase, and 1600, 2900, and 5000 mg/kg at the second phase.
Experiments were performed on Kunming mice (male and female half, bw range, 25–30 g). Mice were housed in a climate and light controlled room with a 12 h light/dark cycle. Twelve hours before experiments, food was withheld, but animals had free access to drinking water. The compounds were suspended in vehicle (Tween-80, 0.2% in saline). The concentrations were adjusted to orally administrate 0.2 ml/10 g of bw. Mice were treated in two phases. In the first, intragastric doses of 10, 100 and 1000 mg/kg of bw of compounds were administered. On the second, the doses were adjusted to 1600, 2900, and 5000 mg/kg of bw of compounds. In both phases, mice were observed daily in a period of 14 days for mortality, toxic effects and/or changes in behavioural pattern. At the end of the experiments, the mice were sacrificed in a CO2 chamber.

normal mice = assay: Acute hypoglycemic assay in normal mice; type: in vivo
Method: STZ-induced diabetic mice and normal mice were placed in single cages with wire-net floors and deprived of food for 12 h before experimentation but allowed free access to tap water throughout. The compounds (at the doses of 10, 30, and 100 mg/kg of bw) were suspended in 0.05% Tween-80 in saline solution. Glibenclamide (10 mg/kg of bw) was suspended in the same vehicle. The target compounds were freshly prepared immediately before experimentation and administered by the intragastrical route at the doses of 10 ml/kg of bw. Control mice received only the vehicle (0.05% Tween-80 in saline solution) by the same route. Blood glucose levels were measured at 0, 1.5, 3, 5, 7, and 9 h after drugs administration.

[3] = tested on: STZ-induced diabetic mice; assay: Oral glucose tolerance test in STZ-induced diabetic mice; type: in vivo; conditions: 30 mg/kg of bw, glucose 2 g/kg of bw, vs vehicle-treated group (p < 0.05)
Method: The target compounds 11, 17, and 35 (30 mg/kg of bw) and control drugs (glibenclamide 10 mg/kg of bw) were dissolved in the vehicle (Tween-80, NaCl 0.9%). Glucose (2 g/kg of bw) was used for the glucose tolerance tests. The control mice group received only the vehicle. All cases were treated orally. Blood samples were collected from caudal vein by means of a small incision in the end of the tail. Blood glucose levels were estimated by a commercial glucometer (Bayer Contour TS). For the anti-hyperglycemic tests, blood samples were obtained 0.5, 1, 1.5, 2, and 3 h after the glucose load. Percentage variation of glycemia for each group was calculated with respect to initial (0 h) level according to: % Variation of glycemia=[(Gi−Gt)/Gi]×100% where Gi is initial glycemia values and Gt is the glycemia value after samples administration. For the anti-hyperglycemic tests, data were represented as % variation of glycemia versus time. Studies were performed in normoglycemic and STZ-induced diabetic mice.

SMILES	IC50 (AGEs formation)	IC50 [1]	LD50 at 14 days [2]	Blood glucose concentration (normal mice; 10 mg/kg of bw per os, 0h)	% Variation of glycemia (normal mice; 10 mg/kg of bw per os, 1.5h)	Blood glucose concentration (normal mice; 10 mg/kg of bw per os, 1.5h)	% Variation of glycemia (normal mice; 10 mg/kg of bw per os, 3h)	Blood glucose concentration (normal mice; 10 mg/kg of bw per os, 3h)	% Variation of glycemia (normal mice; 10 mg/kg of bw per os, 5h)	Blood glucose concentration (normal mice; 10 mg/kg of bw per os, 5h)	% Variation of glycemia (normal mice; 10 mg/kg of bw per os, 7h)	Blood glucose concentration (normal mice; 10 mg/kg of bw per os, 7h)	% Variation of glycemia (normal mice; 10 mg/kg of bw per os, 9h)	Blood glucose concentration (normal mice; 10 mg/kg of bw per os, 9h)	Blood glucose concentration (normal mice; 30 mg/kg of bw per os, 0h)	% Variation of glycemia (normal mice; 30 mg/kg of bw per os, 1.5h)	Blood glucose concentration (normal mice; 30 mg/kg of bw per os, 1.5h)	% Variation of glycemia (normal mice; 30 mg/kg of bw per os, 3h)	Blood glucose concentration (normal mice; 30 mg/kg of bw per os, 3h)	% Variation of glycemia (normal mice; 30 mg/kg of bw per os, 5h)	further results
Cc1ccccc1-c1cc2ccc(O)cc2oc1=O [Compound 11, 7-Hydroxy-3-(2-methylphenyl)-coumarin]	> 1000 µM	564.2 ± 5.2 µM	> 5000 mg/kg	10.0 ± 0.7 mM	(−15.27) %	9.1 ± 0.2 mM	(−28.35) %	7.7 ± 0.6 mM	(−38.01) %	6.6 ± 0.5 mM	(−47.98) %	5.6 ± 0.4 mM	(−48.91) %	5.5 ± 1.2 mM	10.2 ± 1.2 mM	(−13.62) %	8.7 ± 1.2 mM	(−30.90) %	6.9 ± 1.1 mM	(−40.86) %	Blood glucose concentration (normal mice; 30 mg/kg of bw per os, 5h): 5.9 ± 1.1 mM; % Variation of glycemia (normal mice; 30 mg/kg of bw per os, 7h): (−47.84) %; Blood glucose concentration (normal mice; 30 mg/kg of bw per os, 7h): 5.2 ± 0.8 mM; % Variation of glycemia (normal mice; 30 mg/kg of bw per os, 9h): (−49.17) %; Blood glucose concentration (normal mice; 30 mg/kg of bw per os, 9h): 5.1 ± 0.6 mM; Blood glucose concentration (normal mice; 100 mg/kg of bw per os, 0h): 10.4 ± 0.7 mM; % Variation of glycemia (normal mice; 100 mg/kg of bw per os, 1.5h): (−31.37) %; Blood glucose concentration (normal mice; 100 mg/kg of bw per os, 1.5h): 7.0 ± 1.1 mM; % Variation of glycemia (normal mice; 100 mg/kg of bw per os, 3h): (−42.16) %; Blood glucose concentration (normal mice; 100 mg/kg of bw per os, 3h): 5.9 ± 0.6 mM; % Variation of glycemia (normal mice; 100 mg/kg of bw per os, 5h): (−52.94) %; Blood glucose concentration (normal mice; 100 mg/kg of bw per os, 5h): 4.8 ± 1.3 mM; % Variation of glycemia (normal mice; 100 mg/kg of bw per os, 7h): (−54.25) %; Blood glucose concentration (normal mice; 100 mg/kg of bw per os, 7h): 4.7 ± 0.4 mM; % Variation of glycemia (normal mice; 100 mg/kg of bw per os, 9h): (−58.17) %; Blood glucose concentration (normal mice; 100 mg/kg of bw per os, 9h): 4.3 ± 0.3 mM
O=c1oc2ccc(O)cc2cc1-c1ccc(O)cc1 [Compound 17, 6-Hydroxy-3-(4-hydroxyphenyl)-coumarin]	24.68 ± 0.12 µM	163 ± 7.13 µM	> 5000 mg/kg	10.6 ± 0.4 mM	(−23.96) %	7.9 ± 0.7 mM	(−34.19) %	6.9 ± 0.8 mM	(−45.37) %	5.7 ± 0.7 mM	(−48.56) %	5.4 ± 0.5 mM	(−51.12) %	5.1 ± 0.4 mM	10.8 ± 0.3 mM	(−18.39) %	8.4 ± 1.0 mM	(−33.55) %	6.9 ± 0.9 mM	(−48.71) %	Blood glucose concentration (normal mice; 30 mg/kg of bw per os, 5h): 5.3 ± 0.7 mM; % Variation of glycemia (normal mice; 30 mg/kg of bw per os, 7h): (−48.71) %; Blood glucose concentration (normal mice; 30 mg/kg of bw per os, 7h): 5.3 ± 1.1 mM; % Variation of glycemia (normal mice; 30 mg/kg of bw per os, 9h): (−56.45) %; Blood glucose concentration (normal mice; 30 mg/kg of bw per os, 9h): 4.5 ± 0.6 mM; Blood glucose concentration (normal mice; 100 mg/kg of bw per os, 0h): 10.4 ± 0.2 mM; % Variation of glycemia (normal mice; 100 mg/kg of bw per os, 1.5h): (−25.90) %; Blood glucose concentration (normal mice; 100 mg/kg of bw per os, 1.5h): 7.5 ± 1.2 mM; % Variation of glycemia (normal mice; 100 mg/kg of bw per os, 3h): (−37.71) %; Blood glucose concentration (normal mice; 100 mg/kg of bw per os, 3h): 6.3 ± 0.9 mM; % Variation of glycemia (normal mice; 100 mg/kg of bw per os, 5h): (−49.18) %; Blood glucose concentration (normal mice; 100 mg/kg of bw per os, 5h): 5.2 ± 0.5 mM; % Variation of glycemia (normal mice; 100 mg/kg of bw per os, 7h): (−53.44) %; Blood glucose concentration (normal mice; 100 mg/kg of bw per os, 7h): 4.7 ± 0.4 mM; % Variation of glycemia (normal mice; 100 mg/kg of bw per os, 9h): (−58.03) %; Blood glucose concentration (normal mice; 100 mg/kg of bw per os, 9h): 4.3 ± 0.4 mM; postprandial glycemia peak in oral glucose tolerance test [3]: caused significant decrease in the postprandial glycemia peak
Cc1ccc(-c2cc3c(O)cc(O)cc3oc2=O)cc1 [Compound 25, 5,7-Dihydroxy-3-(4-methylphenyl)-coumarin]	45.8 ± 1.27 µM	603 ± 7.42 µM	> 5000 mg/kg																		
COc1ccc(-c2cc3c(O)cc(O)cc3oc2=O)cc1 [Compound 35, 5,7-Dihydroxy-3-(4-methoxyphenyl)-coumarin]	5.21 ± 0.07 µM	155 ± 10.5 µM	> 5000 mg/kg	10.8 ± 0.6 mM	(−14.55) %	9.2 ± 0.6 mM	(−24.15) %	8.2 ± 0.5 mM	(−25.70) %	8.0 ± 0.4 mM	(−31.27) %	7.4 ± 0.5 mM	(−34.06) %	7.1 ± 0.3 mM	10.5 ± 0.9 mM	(−17.72) %	8.7 ± 1.0 mM	(−31.65) %	7.2 ± 0.8 mM	(−39.24) %	Blood glucose concentration (normal mice; 30 mg/kg of bw per os, 5h): 6.4 ± 1.0 mM; % Variation of glycemia (normal mice; 30 mg/kg of bw per os, 7h): (−44.94) %; Blood glucose concentration (normal mice; 30 mg/kg of bw per os, 7h): 5.8 ± 0.7 mM; % Variation of glycemia (normal mice; 30 mg/kg of bw per os, 9h): (−44.30) %; Blood glucose concentration (normal mice; 30 mg/kg of bw per os, 9h): 5.9 ± 0.6 mM; Blood glucose concentration (normal mice; 100 mg/kg of bw per os, 0h): 10.6 ± 0.4 mM; % Variation of glycemia (normal mice; 100 mg/kg of bw per os, 1.5h): (−18.18) %; Blood glucose concentration (normal mice; 100 mg/kg of bw per os, 1.5h): 8.7 ± 0.5 mM; % Variation of glycemia (normal mice; 100 mg/kg of bw per os, 3h): (−40.44) %; Blood glucose concentration (normal mice; 100 mg/kg of bw per os, 3h): 6.3 ± 1.0 mM; % Variation of glycemia (normal mice; 100 mg/kg of bw per os, 5h): (−49.22) %; Blood glucose concentration (normal mice; 100 mg/kg of bw per os, 5h): 5.4 ± 0.6 mM; % Variation of glycemia (normal mice; 100 mg/kg of bw per os, 7h): (−55.17) %; Blood glucose concentration (normal mice; 100 mg/kg of bw per os, 7h): 4.8 ± 0.6 mM; % Variation of glycemia (normal mice; 100 mg/kg of bw per os, 9h): (−57.05) %; Blood glucose concentration (normal mice; 100 mg/kg of bw per os, 9h): 4.6 ± 0.7 mM; postprandial glycemia peak in oral glucose tolerance test [3]: caused significant decrease in the postprandial glycemia peak
